The source made the active and inactive calls.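 The calls were made as follows: active = compounds giving half or more protection of infected cells from virus-caused growth loss, again on retest; inactive = the rest.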 Where a SMILES comes first, the peptide text is derived from it.
Tested on: CEM cells HIV-1 protection, formazan growth assay
Assay: NCI AIDS Antiviral Assay
Settings: for IC50: measured here: growth of uninfected CEM cells
Method in brief: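 Soluble formazan readout of cell growth; CEM cells ± HIV-1; 5 drug concs. ≥50% protection → retest; ≥50% again = moderately active; reproducible 100% = confirmed active.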

Row | SMILES | EC50 [µM] | IC50 [µM] | outcome
1 | CCOC(=O)C1(CC)OC12CCCCC2 (stereo not given) | > 200 | > 200 | –
2 | Oc1cc2cc(-c3ccccc3)[nH]c2c2ccccc12 | > 200 | 31.6 | –
3 | CCC1(c2ccccc2)Oc2ccccc2-n2cccc2C1=O (stereo not given) | 1.78 | 5.01 | –
4 | CCOC(=O)n1c(=O)nc2c3c(ncn21)Oc1c(c(-c2ccccc2)nn1-c1ccccc1)C3c1ccc(Cl)cc1 (stereo not given) | > 200 | 2.29 | –
5 | CCOC(=O)c1cc(-c2ccc3ccccc3n2)c(O)c2cc3ccccc3nc12 | > 200 | > 200 | –
6 | Clc1cccc(Cl)c1C1SCc2nc3cc4ccccc4cc3n21 (stereo not given) | > 200 | > 200 | –
7 | CCCCCCCC/C=C\CCCCCCCC(=O)NCCN(CCN)C(=O)CCCCCCC/C=C\CCCCCCCC | > 25.1 | > 25.1 | –
8 | CCOc1cc2c(cnc3c4cc(OC)c(OC)cc4ccc23)cc1OC | > 27.5 | > 27.5 | –
9 | CN1C(=O)CCCCCCCCCCSc2ccccc21 | > 200 | 40.7 | –
10 | Cc1cnoc1NC1=CC(=O)C(=O)c2ccccc21 | > 200 | 26.3 | –
11 | COC(=O)C(Cc1cc(OC)c(OC)c(OC)c1)C(=O)OC | > 302 | > 302 | –
12 | CCOC(=O)C1(C(=O)OCC)COS(=O)OC1 | > 186 | 97.7 | –
13 | C[N+](C)(C)CC1CCCCCCCCCCC1=O (stereo not given) | 60.3 | 148 | –
14 | Cn1cc/c(=N\N=c2/ccn(C)c3ccccc23)c2ccccc21 | > 115 | 5.01 | –
15 | CCCCCCCCCCCCSCC12c3ccccc3C(c3ccccc31)C(C(=O)O)C2C(=O)O (stereo not given) | > 200 | 22.4 | –
16 | C=C(C)CCC(=O)[C@](C)(O)[C@H]1[C@H](O)C[C@@]2(C)[C@@H]3CCc4c(cc(OC5OC(CO)C(O)C(O)C5O)c(O)c4C)C3(C)C(=O)C[C@]12C (stereo not given in full) | > 200 | > 200 | –
17 | COC(=O)CNC(=O)C(CSC(=O)OCC1c2ccccc2-c2ccccc21)NC(=O)CCC(NC(=O)OCC1c2ccccc2-c2ccccc21)C(=O)OC (stereo not given) | > 200 | 29.5 | –
18 | NC(N)=N/N=C/c1c(-c2ccc(Cl)cc2)nc2sc(Cl)cn12 | > 20 | 1.07 | –
19 | NC(N)=NCCCC(N)C(=O)O (stereo not given) | > 200 | > 200 | –
20 | S=C(NNc1ccccc1)SSSC(=S)NNc1ccccc1 | > 200 | 26.3 | –
21 | CCOP(=O)(OCC)/C(C#N)=C/c1cccc(Br)c1 | – | – | inactive

Row | SMILES | EC50 [µM] | IC50 [µM] | outcome
22 | CCOC(=O)/C(=C\c1ccc(OC)cc1)[Se]c1ccccc1 | > 20 | > 20 | –
23 | Cc1cc(S(=O)(=O)Nc2nc3cscc3c(=O)n2N)c(S)cc1Cl | 33.9 | 132 | –
24 | Cn1nc2ccc(Nc3cc(=O)[nH]c4ccc5nn(C)nc5c34)cc2n1 | > 200 | 95.5 | –
25 | O=C1OC(c2ccccc2)(c2ccccc2)C(=O)OC1(c1ccccc1)c1ccccc1 | > 200 | 148 | –
26 | COc1cc(C(C[N+](=O)[O-])SC(C)=O)ccc1OCc1ccccc1 (stereo not given) | > 200 | 1.95 | –
27 | CC(=O)CC(OC(C)=O)C1=CCC2C(CC1C)OC(=O)C2C (stereo not given) | > 224 | 39.8 | –
28 | COc1cc(/C=C/C(=O)O)ccc1OS(=O)(=O)O | > 200 | > 200 | –
29 | CC(C)OP(=O)(OC(C)C)/C(C#N)=C/c1ccco1 | > 200 | > 200 | –
30 | Nc1nnc(Sc2ccc([N+](=O)[O-])cc2)s1 | > 195 | 11.7 | –
31 | O=C1Oc2ccccc2CC1C(=O)c1ccc(Cl)cc1 (stereo not given) | > 18.2 | > 18.2 | –
32 | Cn1c(=S)[nH]n(CCOc2ccccc2)c1=S | > 200 | > 200 | –
33 | COc1ccc2nc3ccc(OC)cc3c(SCCO)c2c1 | > 200 | 8.51 | –
34 | CC(CC(C)[C@H]1CCC2[C@H]3C(CC(=O)[C@@]21C)[C@@]1(C)CCC(O)C[C@H]1C[C@@H]3O)C(=O)O (stereo not given in full) | > 200 | 162 | –
35 | CC(C)NC1CCCCC2c3ccccc3C12O (stereo not given) | 145 | > 200 | –
36 | CC(=O)Oc1ccccc1-c1cc2ccccc2oc1=O | > 200 | > 100 | –
37 | C/C(=N\NC(N)=O)c1ccccc1 | – | – | inactive
38 | COc1cc2cccc(N=Cc3cccc(OC)c3OC(C)C)c2cc1OC | > 13.2 | > 13.2 | –
39 | Cc1ccc(S(=O)(=O)n2ccnc2)cc1 | > 200 | > 200 | –
40 | CCOC(=O)/C(=C\c1cccc(C)c1)C(C)=O | > 407 | 63.1 | –
41 | O=C(c1ccccc1)n1cc(-c2ccccc2)c2c(=O)[nH]cnc21 | > 200 | > 100 | –
42 | CC[C@]1(O)C[C@H]2CN(CCc3c([nH]c4ccccc34)[C@@](C(=O)OC)(c3cc4c(cc3OC)N(C)[C@H]3[C@@](O)(C(=O)OC)[C@H](OC(C)=O)[C@]5(CC)C=CCN6CC[C@]43[C@@H]65)C2)C1 | > 0.0302 | 0.000355 | –

Row | SMILES | EC50 [µM] | IC50 [µM] | outcome
43 | N#CCCN(c1ccc(-c2nnc(NC(=O)CNNC(=O)CC(=O)Nc3ccccc3)s2)cc1)S(=O)(=O)c1ccccc1 | > 41.7 | > 41.7 | –
44 | NNC(=S)N/N=C(/C(=O)Nc1cc(Cl)ccc1Cl)C1C(=O)Nc2ccccc2S1=O (stereo not given) | > 513 | 257 | –
45 | COC(=O)C1=NC(=N)N=C(C(=O)OC)C12C(=O)Cc1ccccc12 (stereo not given) | 339 | 398 | –
46 | CNC(=O)OCn1cnc(Cl)c1Cl | > 200 | > 200 | –
47 | c1ccc2c(c1)SC1=C(SC(=C3SC4=C(S3)Sc3ccccc3S4)S1)S2 | > 100 | > 100 | –
48 | O=c1ccn(C/C=N/OCCP(=O)(O)O)c(=O)[nH]1 | > 200 | > 200 | –
49 | CN(C)Cc1cc(C(=O)/C=C/c2ccccc2Cl)cc(CN(C)C)c1O | > 200 | 7.24 | –
50 | O=S1ON=C(C2CCC(C3=NOS(=O)O3)C2)O1 (stereo not given) | > 200 | > 200 | –
51 | CC1(C)CC(=O)C2=C(C1)OC1=C(C(=O)CC(C)(C)C1)C2C(O)C(O)C(O)CO (stereo not given) | > 200 | > 200 | –
52 | CN(C)/N=C(/c1nc2ccc(Cl)cc2[nH]c1=O)C(O)c1ccc(C(O)/C(=N\N(C)C)c2nc3ccc(Cl)cc3[nH]c2=O)cc1 (stereo not given) | > 389 | 24 | –
53 | c1ccc2c3c([nH]c2c1)CCc1cncnc1-3 | > 200 | 12 | –
54 | CCOP(=O)(OCC)/C(C#N)=C/c1ccc([N+](=O)[O-])cc1 | > 813 | 575 | –
55 | COc1cc2nncc(SCc3ccc(Cl)c(Cl)c3)c2cc1OC | > 39.8 | 4.57 | –
56 | CC(=O)/C(=C/N1CC(=O)NC1=S)C(=O)Nc1ccccc1 | > 200 | > 200 | –
57 | N#Cc1ccc(Oc2nc3ccccc3nc2-c2ccccc2)cc1 | > 200 | > 200 | –
58 | COc1ccc(C2CC(=O)CC(c3ccc(OC)cc3)C23C(=O)CCCC3=O)cc1 (stereo not given) | > 200 | > 200 | –
59 | COc1cccc2c1C(=O)c1c(O)c3c(c(O)c1C2=O)C[C@@](O)(C(=O)CO)C[C@@H]3OC1CC(N)C(OC)C(C)O1 (stereo not given in full) | > 0.2 | 0.0195 | –
60 | CCN(CC)c1ccc2cc(-c3nc4ccccc4[nH]3)c(=O)oc2c1 | > 7.76 | > 7.76 | –
61 | CCC([NH-])C(=O)O.CCC([NH-])C(=O)O.[Cu+2] (stereo not given) | > 200 | 18.2 | –
62 | COC(=O)C1OS(=O)(=O)OC1C(=O)OC (stereo not given) | > 200 | > 200 | –
63 | CCOC(=O)CNS(=O)(=O)c1ccccc1 | > 200 | > 200 | –

Row | SMILES | EC50 [µM] | IC50 [µM] | outcome
64 | CN1C(=O)/C(=N/N(c2ccccc2)c2ccccc2)c2ccccc21 | > 200 | > 200 | –
65 | CC1CC(=O)N2CCCNC2=C1C#N (stereo not given) | > 200 | > 200 | –
66 | Cc1cc2c(C(C)C)c(O)c(O)c(C=Nc3ccc(Cl)cc3)c2c(O)c1-c1c(C)cc2c(C(C)C)c(O)c(O)c(C=Nc3ccc(Cl)cc3)c2c1O | > 200 | 11.7 | –
67 | CC(=O)c1c2c(cc3c1CC1(C3)Cc3cc4c(c(C(C)=O)c3C1)CCC4)CCC2 | > 18.6 | > 18.6 | –
68 | CC(C)=CCc1c(O)cc(O)c2c1O[C@H](c1cc3c(cc1O)O[C@@H](c1ccc(O)cc1)C3c1cc(O)cc(O)c1)CC2=O (stereo not given in full) | > 77.6 | 36.3 | –
69 | CNc1ccc(Cl)cc1S(=O)(=O)c1ccc([N+](=O)[O-])cc1 | > 200 | > 200 | –
70 | O[C@H]1c2cccn2-c2ccccc2S[C@H]1c1ccccc1 | > 83.2 | 43.7 | –
71 | N#Cc1c(N)[nH]c(=S)c(C#N)c1-c1ccccc1 | > 200 | 135 | –
72 | CCC1CCc2c(OC)ccc(OCC(=O)O)c2C1=O (stereo not given) | – | – | inactive
73 | C/C=C/c1cc2c(c(=O)o1)C(=O)[C@@H](O)[C@H](C)O2 | > 200 | 3.72 | –
74 | O=[N+]([O-])c1ccc(N/N=C/CC(O)(C(F)(F)F)C(F)(F)F)c([N+](=O)[O-])c1 | > 200 | 7.08 | –
75 | CSC(=S)Nc1cccc(C)n1 | > 200 | 102 | –
76 | Cc1nc2c(ccc3c(C)c(C)c(C)nc32)c(C)c1C.Cc1nc2c(ccc3c(C)c(C)c(C)nc32)c(C)c1C.O=C1OC(C(O)C[O-])C(O)=C1O.[Cu+] | > 12.6 | 0.692 | –
77 | CC1=C(C(=O)Nc2cc(F)c(F)cc2F)C(c2ccc(N(C)C)cc2)C(C(=O)Nc2cc(F)c(F)cc2F)=C(C)N1 | > 23.4 | > 23.4 | –
78 | O=c1oc2ccccc2c(O)c1C(C/C(=N/O)c1ccccc1)c1ccccc1 (stereo not given) | > 200 | 70.8 | –
79 | C[C@@H](NC(=O)CNC(=O)OC(C)(C)C)C(=O)N[C@@H](Cc1ccccc1)C(=O)OCc1ccccc1 (HELM PEPTIDE1{[CC(C)(C)OC(=O)[*:2]].G.[dA].F.[c1ccc(CO[*:1])cc1]}$$$$V2.0) | > 200 | 97.7 | –
80 | COc1ccc2c(c1)OC[C@@H]1c3cc(OC)c(OCc4ccccc4)cc3O[C@H]21 | 6.61 | > 100 | –
81 | COc1ccccc1NC(=O)C(=O)C(c1cnc2ccc([N+](=O)[O-])cc2n1)[N+](=O)[O-] (stereo not given) | > 316 | 89.1 | –
82 | CC1(c2nc3ccccc3[nH]2)CCC(C#N)C(C)(C)O1 (stereo not given) | > 200 | > 200 | –
83 | Cc1nc2ccccc2c(=O)n1-c1ccccc1I | > 100 | > 100 | –
84 | CN(C)Cc1cc(C(=O)/C=C/c2ccc(Cl)cc2Cl)cc(CN(C)C)c1O | > 200 | 3.8 | –
